Assay results reported in patent US4414225A, “Azepine derivatives and their anti-thrombotic compositions and methods” (Dr. Karl Thomae Gesellschaft mit beschrankter Haftung, priority 1981, dated 1983).

Tests used:
normolipemic rat = assay: Cholesterol-reducing effect: test on the normolipemic rat; format: in vivo; conditions: 1.1 mg/kg (A) or 20.0 mg/kg (B), by esophageal tube twice with interval of 20 hours, serum after 28 and 44 hours
Description: (§1) 1. Cholesterol-reducing effect
(b) Test on the normolipemic rat:
Male normolipemic rats with an average body weights of 250 to 300 gm were given the test compound by esophageal tube twice with an interval of 20 hours. At the start of the test, the animals were deprived of food but had free access to drinking water. The serum cholesterol levels were determined enzymatically (Boehringer Mannheim Test Combination 126.039) after 28 and 44 hours. The percentage reduction was calculated in comparison with a control group: […]

Acute toxicity = format: in vivo; conditions: maximum doses used (50 mg/kg per os)
hyperlipemic rat = assay: Cholesterol-reducing effect: test on the hyperlipemic rat; format: in vivo; conditions: 50 mgm/kg by esophageal tube on two successive days, serum 24 hours after final administration
Description: as §1
(a) Test on the hyperlipemic rat: Literatur: P. E. Schurr et al., Atherosclerosis Drug Discovery (1976), published by C. E. Day; Plenum, New York, page 215.
Young male rats with an average body weight of 100 gm were made hypercholesterolemic by feeding them for 4 days on a diet consisting of 10% coconut oil, 1.5% cholesterol, 0.5% cholic acid, 0.2% choline chloride and 15% sucrose. While continuing with the diet, the test compound was administered in a methyl cellulose suspension by esophageal tube on two successive days. The animals were then made to fast overnight and 24 hours after the final administration of the test compound a blood sample was taken in order to obtain serum.
In the serum, the total cholesterol was determined enzymatically (Boehringer Mannheim Test Combination 126 039) and the β-lipoproteinswere determined by nephelometry, after precipitation with Ca^++ and heparin, in the Autoanalyzer. The percentage reduction was calculated by comparison with a control group: […]

[1] = system: thrombocytes of healthy human test subjects; assay: Born test: collagen-induced thrombocyte aggregation, with and without PGI2 (in vitro); format: cell-based; conditions: n = 4; for inhibition at 100 µM: Homo sapiens; for mm height of curve (Born test): control 129
Description: (§2) 2. Antithrombotic Activity: (a) The thrombocytes of healthy human test subjects were incubated for 10 minutes at 37° C. with the test substance (final concentration: 1×10^-4 mol/l). Then, aggregation was initiated with collagen in the Born test in the usual way. Shortly before aggregation was initiated, a small quantity of supernatant liquid containing prostacycline, which was obtained from rings of aorta placed in the TRIS buffer, was added to the test sample. The quantity of supernatant liquid containing prostacycline was selected so that on its own it had little or no inhibiting effect. The sample incubated with the substance reacted with PGI2 to give an inhibition of aggregation which was more than additive.

thrombocyte aggregation = assay: Prostacycline-reinforcing effect after oral administration in animals (Born Test on blood sample); format: in vivo, rat
Description: as §2, with “(a)” for “2. Antithrombotic Activity: (a)”
(c) Prostacycline-reinforcing effect after oral administration in animals:
Rats weighing 450 gm were given the compound orally at a dose of 20 mg/kg; then, after one hour, a blood sample was taken and the Born Test was carried out as described above.

[2] = system: thrombocytes of healthy human test subjects; assay: Adenosine-potentiating effect in the Born Test (thrombocyte aggregation); format: cell-based; conditions: n = 4; for mm height of curve (Born test): control 114
[3] = PRP + compound C (1×10^-4 mol/l) + PGI2, collagen
[4] = PRP + compound C alone, 1×10^-4 mol/l, collagen
[5] = PRP + compound C alone (1 × 10^-4)

Compound: CCCCCCCCCCCCN1CCc2cc(C(=O)[O-])sc2CC1.[Na+]
- Percentage reduction compared with control: Total cholesterol in the serum (normolipemic rat): -20%
- toxic side effects (Acute toxicity): no toxic side effects were observed
- Percentage reduction compared with controls: Cholesterol in the serum (hyperlipemic rat): -21%
- Percentage reduction compared with controls: β-lipoproteins in the serum (hyperlipemic rat): -51%

Compound: Cl.O=C(O)c1cc2c(s1)CCN(Cc1ccccc1)CC2 [A, 6-Benzyl-5,6,7,8-tetrahydro-4H-thieno[2,3-d]azepine-2-carboxylic acid hydrochloride]
- Percentage reduction compared with control: Total cholesterol in the serum (normolipemic rat): -26%
- toxic side effects (Acute toxicity): no toxic side effects were observed

Compound: Cl.Clc1ccccc1CN1CCc2ccsc2CC1 [C, 6-(2-Chlorobenzyl)-5,6,7,8-tetrahydro-4H-thieno[2,3-d]azepine hydrochloride]
- toxic side effects (Acute toxicity): no toxic side effects were observed
- inhibition at 100 µM [1, 3]: 69%
- inhibition at 100 µM [1, 4]: 20.7%
- mm height of curve (Born test) [1, 3]: 38 mm
- mm height of curve (Born test) [1, 4]: 101 mm
- inhibition of aggregation (thrombocyte aggregation; rats treated with 20 mg/kg per os of compound C, blood sample after one hour, without PGI2, averages from three sets of tests on four animals): 4%
- inhibition of aggregation (thrombocyte aggregation; rats treated with compound C, 20 mg/kg per os, blood sample after one hour, + PGI2): 100%
- % inhibition of thrombocyte aggregation ([2]; PRP + compound C + adenosine): 61%
- mm height of curve (Born test) ([2]; PRP + compound C + adenosine): 44 mm
- % inhibition of thrombocyte aggregation [2, 5]: 33%
- mm height of curve (Born test) [2, 5]: 75 mm

Compound: Nc1ncnc2c1ncn2[C@@H]1O[C@H](CO)[C@@H](O)[C@H]1O [adenosine, reference compound]
- % inhibition of thrombocyte aggregation ([2]; PRP + adenosine alone): 20%
- mm height of curve (Born test) ([2]; PRP + adenosine alone): 91 mm

Compound: PGI2 [reference compound]
- % inhibition of thrombocyte aggregation ([1]; PRP + PGI2 alone, collagen): 30%
- mm height of curve (Born test) ([1]; PRP + PGI2 alone, collagen): 90 mm
- inhibition of aggregation (thrombocyte aggregation; plasma of control animals + PGI2): 20%
